The test concerns HepG2 (L1.3 5'UTR promoter firefly luciferase reporter). Briefly: L1 promoter activity (FLuc/RLuc) relative to DMSO vehicle control (% of control); higher = stronger L1 promoter activation. The protocol:
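HepG2 cells in 96-well plates were cotransfected with pGL4.11-L1.3 5'UTR (firefly luciferase driven by the human L1.3 5'UTR promoter) and pGL4.74 (HSV-TK Renilla luciferase internal control), then treated with compound for 6 or 24 h. FLuc/RLuc ratio was normalised to the DMSO vehicle control (% of control); concentrations where RLuc fell below 50% of control were excluded (N.D.). Mean of at least two independent experiments in duplicate or quadruplicate.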

[1] abbreviates: concentration (uM unless unit written): 0.05, treatment time: 6 h.
Setting [2] is: concentration (uM unless unit written): 0.1, treatment time: 6 h.
[3] abbreviates: concentration (uM unless unit written): 0.1, treatment time: 24 h.
[4] abbreviates: concentration (uM unless unit written): 500, treatment time: 6 h.
[5] abbreviates: concentration (uM unless unit written): 500, treatment time: 24 h.
Setting [6] is: concentration (uM unless unit written): 1000, treatment time: 6 h.
Where [7] appears, read: concentration (uM unless unit written): 1000, treatment time: 24 h.
Where [8] appears, read: concentration (uM unless unit written): 10, treatment time: 6 h.
The mark [9] stands for this setting: concentration (uM unless unit written): 10, treatment time: 24 h.
[10] abbreviates: concentration (uM unless unit written): 50, treatment time: 6 h.
Setting [11] is: concentration (uM unless unit written): 50, treatment time: 24 h.
[12] abbreviates: concentration (uM unless unit written): 100, treatment time: 6 h.
The mark [13] stands for this setting: concentration (uM unless unit written): 100, treatment time: 24 h.
[14] abbreviates: concentration (uM unless unit written): 25, treatment time: 6 h.
Setting [15] is: concentration (uM unless unit written): 25, treatment time: 24 h.
The mark [16] stands for this setting: concentration (uM unless unit written): 200, treatment time: 6 h.
Setting [17] is: concentration (uM unless unit written): 0.5, treatment time: 6 h.
Where [18] appears, read: concentration (uM unless unit written): 0.5, treatment time: 24 h.
The mark [19] stands for this setting: concentration (uM unless unit written): 1, treatment time: 6 h.
Where [20] appears, read: concentration (uM unless unit written): 1, treatment time: 24 h.
Setting [21] is: concentration (uM unless unit written): 125, treatment time: 6 h.
Setting [22] is: concentration (uM unless unit written): 125, treatment time: 24 h.
[23] abbreviates: concentration (uM unless unit written): 250, treatment time: 6 h.
The mark [24] stands for this setting: concentration (uM unless unit written): 250, treatment time: 24 h.
Setting [25] is: concentration (uM unless unit written): 62.5, treatment time: 6 h.
Setting [26] is: concentration (uM unless unit written): 62.5, treatment time: 24 h.
Where [27] appears, read: concentration (uM unless unit written): 5, treatment time: 6 h.
[28] abbreviates: concentration (uM unless unit written): 5, treatment time: 24 h.
Where [29] appears, read: concentration (uM unless unit written): 20, treatment time: 6 h.
Where [30] appears, read: concentration (uM unless unit written): 20, treatment time: 24 h.

Structures are written as SMILES. Where a name gives a salt, the structure may show the parent alone. ± gives the uncertainty stated by the source.

`CC[C@@]1(O)C(=O)OCc2c1cc1n(c2=O)Cc2cc3ccccc3nc2-1` [Camptothecin] yielded an L1 promoter activity under setting [1] of 110 ± 17; an L1 promoter activity (concentration (uM unless unit written): 0.05, treatment time: 24 h) of 142 ± 21; an L1 promoter activity under setting [2] of 98.1 ± 16; an L1 promoter activity under setting [3] of 135 ± 21; an L1 promoter activity (concentration (uM unless unit written): 0.3, treatment time: 6 h) of 103 ± 22; an L1 promoter activity (concentration (uM unless unit written): 0.3, treatment time: 24 h) of 152 ± 13.

As to `ClC(Cl)(Cl)Cl` [Carbon tetrachloride], the L1 promoter activity was found to be 99.7 ± 5.5 under setting [4]; 91.3 ± 3.6 under setting [5]; 111 ± 5.9 under setting [6]; 90.7 ± 12 under setting [7]; 108 ± 8.1 (concentration (uM unless unit written): 2000, treatment time: 6 h); 98.4 ± 8.2 (concentration (uM unless unit written): 2000, treatment time: 24 h).

For `N.N.[Cl][Pt][Cl]` [Cisplatin], the L1 promoter activity is, setting by setting: under setting [8], 109 ± 13; under setting [9], 98.4 ± 13; under setting [10], 117 ± 23; under setting [11], 105 ± 7.7; under setting [12], 148 ± 40; under setting [13], 95.4 ± 19.

On to `CC1=C2C(=CO[C@H](C)[C@H]2C)C(O)=C(C(=O)O)C1=O` [Citrinin], for which the L1 promoter activity runs as follows: (concentration (uM unless unit written): 45, treatment time: 6 h) 101 ± 12; (concentration (uM unless unit written): 45, treatment time: 24 h) 104 ± 14; (concentration (uM unless unit written): 90, treatment time: 6 h) 102 ± 10; (concentration (uM unless unit written): 90, treatment time: 24 h) 134 ± 25.

Consider `CCOC(=O)C(C)(C)Oc1ccc(Cl)cc1` [Clofibrate], for which the L1 promoter activity under setting [8] worked out at 113 ± 11; the L1 promoter activity under setting [9] worked out at 112 ± 7.9; the L1 promoter activity under setting [12] came out at 102 ± 11; the L1 promoter activity under setting [13] came out at 100 ± 9.5; the L1 promoter activity under setting [6] is 106 ± 17; the L1 promoter activity under setting [7] is 132 ± 23.

With `COC(=O)[C@H](c1ccccc1Cl)N1CCc2sccc2C1` [Clopidogrel], the L1 promoter activity is, setting by setting: under setting [8], 96.7 ± 8.6; under setting [9], 113 ± 5.2; under setting [14], 98.5 ± 12; under setting [15], 113 ± 14; under setting [10], 92.9 ± 6; under setting [11], 110 ± 9.2. The L1 promoter activity stood at 84.6 ± 4.5 under setting [12] and 107 ± 12 under setting [13].

On to `COc1cc2c(c(OC)c1OC)-c1ccc(OC)c(=O)cc1[C@@H](NC(C)=O)CC2` [Colchicine], for which the L1 promoter activity is, setting by setting: (concentration (uM unless unit written): 0.01, treatment time: 6 h) 100 ± 17; (concentration (uM unless unit written): 0.01, treatment time: 24 h) 100 ± 18; under setting [1], 99.8 ± 4.3; under setting [2], 108 ± 32.

As to `O=P1(N(CCCl)CCCl)NCCCO1` (stereo unspecified) [Cyclophosphamide], the L1 promoter activity turned out to be 96.3 ± 14 (concentration (uM unless unit written): 10000, treatment time: 6 h); 95.3 ± 11 (concentration (uM unless unit written): 10000, treatment time: 24 h); 93.6 ± 22 (concentration (uM unless unit written): 20000, treatment time: 6 h); 77.9 ± 4.5 (concentration (uM unless unit written): 20000, treatment time: 24 h); 98.3 ± 8.4 (concentration (uM unless unit written): 40000, treatment time: 6 h).

On to `CN1CCC(=C2c3ccccc3C=Cc3ccccc32)CC1` [Cyproheptadine hydrochloride sesquihydrate], for which the L1 promoter activity by setting is: under setting [10], 90.1 ± 17; under setting [11], 70.2 ± 14; under setting [12], 74.7 ± 30; under setting [16], 47.2 ± 12.

For `C=C1[C@@H](C)[C@H]2[C@H](Cc3ccccc3)NC(=O)[C@]23[C@H](OC(C)=O)/C=C/[C@@](C)(O)C(=O)[C@@H](C)C/C=C/[C@H]3[C@@H]1O` [Cytochalasin D], the L1 promoter activity by setting is: under setting [2], 110 ± 13; under setting [3], 106 ± 11; under setting [17], 101 ± 7.4; under setting [18], 128 ± 8.5; under setting [19], 106 ± 12; under setting [20], 167 ± 16. Moreover, the L1 promoter activity runs as follows: under setting [8], 98.6 ± 13; under setting [9], 295 ± 20.

On to `Nc1ccn([C@@H]2O[C@H](CO)[C@@H](O)[C@@H]2O)c(=O)n1` [Cytosine arabinoside], for which the L1 promoter activity is, setting by setting: under setting [21], 101 ± 8; under setting [22], 106 ± 3.7; under setting [23], 95.2 ± 5.5; under setting [24], 105 ± 4.4; under setting [4], 102 ± 8.1; under setting [5], 103 ± 6.2.

For `O=C(O)Cc1ccccc1Nc1c(Cl)cccc1Cl` [Diclofenac], the L1 promoter activity is, setting by setting: under setting [21], 109 ± 7.5; under setting [22], 68.5 ± 3.6; under setting [23], 107 ± 1.6; under setting [24], 59.6 ± 5.5.

As to `CCOC(=O)CC(O)C(=O)OCC` (stereo unspecified) [Diethyl malate], the L1 promoter activity amounted to 127 ± 13 (concentration (uM unless unit written): 375, treatment time: 6 h) and 159 ± 18 (concentration (uM unless unit written): 750, treatment time: 6 h).

On to `O=C(O)c1cc(-c2ccc(F)cc2F)ccc1O` [Diflunisal], for which the L1 promoter activity is, setting by setting: under setting [25], 148 ± 6.5; under setting [26], 117 ± 8.5; under setting [21], 136 ± 12; under setting [22], 156 ± 4.7; under setting [23], 159 ± 21.

As for `COc1cccc2c1C(=O)c1c(O)c3c(c(O)c1C2=O)C[C@@](O)(C(=O)CO)C[C@@H]3O[C@H]1C[C@H](N)[C@H](O)[C@H](C)O1` [Doxorubicin], the L1 promoter activity reads like this: under setting [3], 88.8 ± 15; under setting [17], 101 ± 33; under setting [18], 40.2 ± 13; under setting [19], 98.1 ± 26; under setting [20], 30.3 ± 5.5.

For `NC1=NCC2c3ccccc3Cc3ccccc3N12` (stereo unspecified) [Epinastine hydrochloride], the L1 promoter activity reads like this: under setting [12], 93.6 ± 15; under setting [13], 85.9 ± 26; under setting [16], 77.8 ± 12; under setting [4], 27.1 ± 3.8.

The molecule `CCOC(=O)[C@@]1(CCCCCCOc2ccc(Cl)cc2)CO1` [Etomoxir] gave an L1 promoter activity under setting [10] of 127 ± 11; an L1 promoter activity under setting [11] of 111 ± 15; an L1 promoter activity under setting [12] of 147 ± 12; an L1 promoter activity under setting [13] of 143 ± 17; an L1 promoter activity under setting [4] of 181 ± 23.

The molecule `COc1cc([C@@H]2c3cc4c(cc3[C@@H](O[C@@H]3O[C@@H]5CO[C@@H](C)O[C@H]5[C@H](O)[C@H]3O)[C@H]3COC(=O)[C@H]23)OCO4)cc(OC)c1O` [Etoposide] yielded an L1 promoter activity under setting [8] of 90.4 ± 7.5; an L1 promoter activity under setting [9] of 95.7 ± 4.1; an L1 promoter activity under setting [14] of 100 ± 30; an L1 promoter activity under setting [15] of 108 ± 16; an L1 promoter activity under setting [10] of 98.6 ± 21; an L1 promoter activity under setting [11] of 138 ± 70.

As to `CC(C)OC(=O)C(C)(C)Oc1ccc(C(=O)c2ccc(Cl)cc2)cc1` [Fenofibrate], the L1 promoter activity is 117 ± 9.8 under setting [8]; 108 ± 5.3 under setting [9]; 126 ± 11 under setting [10]; 127 ± 10 under setting [11]; 141 ± 12 under setting [12]; 163 ± 24 under setting [13].

With `OC(Cn1cncn1)(Cn1cncn1)c1ccc(F)cc1F` [Fluconazole], the L1 promoter activity (concentration (uM unless unit written): 1250, treatment time: 6 h) is 108 ± 11; the L1 promoter activity (concentration (uM unless unit written): 1250, treatment time: 24 h) is 99.5 ± 7.4; the L1 promoter activity (concentration (uM unless unit written): 2500, treatment time: 6 h) turned out to be 99.2 ± 6.7; the L1 promoter activity (concentration (uM unless unit written): 2500, treatment time: 24 h) was found to be 92.7 ± 13.

`O=C(O)c1ccccc1Nc1cccc(C(F)(F)F)c1` [Flufenamic acid]: the L1 promoter activity is 130 ± 7.7 under setting [25]; 158 ± 19 under setting [26]; 119 ± 14 under setting [21]; 120 ± 20 under setting [22]; 129 ± 21 under setting [23].

Consider `O=c1[nH]cc(F)c(=O)[nH]1` [Fluorouracil], for which the L1 promoter activity is 110 ± 30 under setting [27]; 107 ± 18 under setting [28]; 109 ± 22 under setting [8]; 83.2 ± 4.1 under setting [9]; 94.5 ± 11 under setting [29]; 73.4 ± 11 under setting [30].

Consider `CC(C)n1c(/C=C/C(O)CC(O)CC(=O)O)c(-c2ccc(F)cc2)c2ccccc21` (stereo unspecified) [Fluvastatin], for which the L1 promoter activity under setting [27] was 126 ± 35; the L1 promoter activity under setting [28] came out at 134 ± 32; the L1 promoter activity under setting [8] is 111 ± 32; the L1 promoter activity under setting [9] came out at 102 ± 23; the L1 promoter activity under setting [29] was found to be 99.4 ± 19; the L1 promoter activity under setting [30] was 109 ± 25.

For the origin of these results see the supplement of paper PMC3770661.
